Data: patent US20160272617A1, “SUBSTITUTED PHENYLALANINE DERIVATIVES” (BAYER PHARMA AKTIENGESELLSCHAFT, priority 2013, published 2016)
Counter-ions that a name gives are not always drawn.

Columns and labels:
human factor XIa = molecular target: T1, human factor XIa (Homo sapiens, UniProt P03951); test: Measurement of FXIa inhibition (fluorogenic peptide substrate Boc-Glu(OBzl)-Ala-Arg-AMC); format: biochemical; settings: factor XIa from Kordia, 15 min preincubation, 30 min at 22° C., fluorescence
T1 construct: purchased Kordia
T1 sequence (P03951 388-625 limits assumed): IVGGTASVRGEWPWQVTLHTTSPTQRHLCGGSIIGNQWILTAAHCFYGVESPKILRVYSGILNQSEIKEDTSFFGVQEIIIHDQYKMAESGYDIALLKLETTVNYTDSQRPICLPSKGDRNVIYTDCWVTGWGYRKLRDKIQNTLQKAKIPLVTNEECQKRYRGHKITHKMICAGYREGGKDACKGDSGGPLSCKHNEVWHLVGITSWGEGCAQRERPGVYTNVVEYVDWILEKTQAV
T1 sequence (P03951 19-387 partner limits assumed): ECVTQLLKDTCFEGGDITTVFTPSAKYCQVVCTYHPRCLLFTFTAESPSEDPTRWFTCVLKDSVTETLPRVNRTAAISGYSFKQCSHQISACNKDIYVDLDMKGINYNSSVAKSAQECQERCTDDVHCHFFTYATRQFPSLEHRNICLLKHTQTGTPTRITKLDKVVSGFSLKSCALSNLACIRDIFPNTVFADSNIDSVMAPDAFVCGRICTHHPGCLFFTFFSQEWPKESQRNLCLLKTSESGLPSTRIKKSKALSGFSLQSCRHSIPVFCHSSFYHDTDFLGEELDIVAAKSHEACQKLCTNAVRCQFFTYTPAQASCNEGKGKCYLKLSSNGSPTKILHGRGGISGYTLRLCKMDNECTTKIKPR
Summary of the method: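 Released AMC fluorescence (360/460 nm) read after 30 min at 22 °C. The reaction was started with Boc-Glu(OBzl)-Ala-Arg-AMC (10 μM stock) after a 15 min preincubation of the enzyme (0.45 nM stock) with compound (final 50 μM to 0.00013 μM).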

human plasmin = molecular target: T2, human plasmin (Homo sapiens, UniProt P00747); test: Measurement of plasmin inhibition (fluorogenic peptide substrate MeOSuc-Ala-Phe-Lys-AMC); format: biochemical; settings: plasmin from Kordia, 15 min preincubation, 30 min at 22° C., fluorescence
T2 construct: purchased Kordia
T2 sequence (P00747 581-810 limits assumed): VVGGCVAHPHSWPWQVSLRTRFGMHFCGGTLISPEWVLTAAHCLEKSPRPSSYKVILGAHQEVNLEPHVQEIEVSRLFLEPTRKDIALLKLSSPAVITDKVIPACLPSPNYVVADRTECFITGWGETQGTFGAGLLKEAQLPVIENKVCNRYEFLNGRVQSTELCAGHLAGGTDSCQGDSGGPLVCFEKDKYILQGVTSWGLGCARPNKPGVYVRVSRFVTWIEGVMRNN
T2 sequence (P00747 97-580 partner limits assumed): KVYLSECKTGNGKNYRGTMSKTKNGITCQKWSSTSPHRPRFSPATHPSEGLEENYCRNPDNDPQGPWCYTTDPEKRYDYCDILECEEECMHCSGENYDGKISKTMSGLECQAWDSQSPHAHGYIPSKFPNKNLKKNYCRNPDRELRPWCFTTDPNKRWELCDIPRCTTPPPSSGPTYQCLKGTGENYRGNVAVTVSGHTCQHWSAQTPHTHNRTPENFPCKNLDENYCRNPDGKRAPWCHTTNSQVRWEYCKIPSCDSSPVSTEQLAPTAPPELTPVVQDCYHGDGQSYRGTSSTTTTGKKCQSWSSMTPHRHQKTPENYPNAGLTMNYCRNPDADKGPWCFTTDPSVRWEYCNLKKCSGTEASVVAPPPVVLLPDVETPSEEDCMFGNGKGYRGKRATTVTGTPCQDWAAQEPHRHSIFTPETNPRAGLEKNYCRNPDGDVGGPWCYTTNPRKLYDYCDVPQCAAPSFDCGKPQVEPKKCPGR
Procedure: The plasmin inhibition of the inventive substances is determined using a biochemical test system which utilizes the reaction of a peptidic plasmin substrate to determine the enzymatic activity of human plasmin. Here, plasmin cleaves from the peptic plasmin substrate the C-terminal aminomethylcoumarin (AMC), the fluorescence of which is measured. The determinations are carried out in microtitre plates.
Test substances are dissolved in dimethyl sulphoxide and serially diluted in dimethyl sulphoxide (3000 μM to 0.0078 μM; resulting final concentrations in the test: 50 μM to 0.00013 μM). In each case 1 μl of the diluted substance solutions are placed into the wells of white microtitre plates from Greiner (384 wells). Subsequently, the following are added successively: 20 μl of assay buffer (50 mmol/Tris buffer pH 7.4; 100 mmol/l sodium chloride; 5 mmol/calcium chloride; 0.1% bovine serum albumin) and 20 μl of plasmin from Kordia (0.3 μg/ml in assay buffer) are then added successively. After 15 min of incubation, the enzyme reaction is started by addition of 20 μl of the plasmin substrate MeOSuc-Ala-Phe-Lys-AMC dissolved in assay buffer (150 μM in assay buffer) from Bachem, the mixture is incubated at room temperature (22° C.) for 30 min and fluorescence is then measured (excitation: 360 nm, emission: 460 nm). The measured emissions of the test batches with test substance are compared to those of control batches without test substance (only dimethyl sulphoxide instead of test substance in dimethyl sulphoxide), and the IC50 values are calculated from the concentration/activity relationships.

human and animal plasma = test: Determination of anticoagulatory activity: activated partial thromboplastin time (aPTT) in plasma; settings: concentration of test substance which brings about a 1.5-fold extension of the aPTT; plasma species not given
Summary of the method: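 Citrated plasma (1:9, 0.11 M citrate; 4000 g, 15 min) from human or animal blood incubated with test compound and cephalin/kaolin PTT reagent for 3 min at 37° C.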

Cc1cc(C(=O)NC(C)C)ccc1-c1ccc(C[C@H](NC(=O)[C@H]2CC[C@H](CN)CC2)C(=O)Nc2ccc3nc[nH]c3c2)cc1 [Example 142, 4′-[(2S)-2-({[trans-4-(Aminomethyl)cyclohexyl]carbonyl}amino)-3-(1H-benzimidazol-6-ylamino)-3-oxopropyl]-N-isopropyl-2-methylbiphenyl-4-carboxamide hydrochloride]
IC50 (human factor XIa): 15 nM | IC50 (human plasmin): 2.1 nM | aPTT (human and animal plasma): 0.33 µmol/L

Cc1cc(C(=O)NC(C)C)ccc1-c1ccc(C[C@H](NC(=O)[C@H]2CC[C@H](CN)CC2)C(=O)Nc2ccc3c(=O)[nH][nH]c3c2)cc1 [Example 135, 4′-{(2S)-2-({[trans-4-(Aminomethyl)cyclohexyl]carbonyl}amino)-3-oxo-3-[(3-oxo-2,3-dihydro-1H-indazol-6-yl)amino]propyl}-N-isopropyl-2-methylbiphenyl-4-carboxamide hydrochloride]
IC50 (human factor XIa): 2.2 nM | IC50 (human plasmin): 0.96 nM | aPTT (human and animal plasma): 0.24 µmol/L

Cc1cc(C(=O)NC(C)C)ccc1-c1ccc(C[C@H](NC(=O)[C@H]2CC[C@H](CN)CC2)C(=O)Nc2ccc(-c3nnc(C(F)(F)C(F)(F)C(=O)O)[nH]3)cc2)cc1 [Example 116, 3-{5-[4-({(2S)-2-({[trans-4-(Aminomethyl)cyclohexyl]carbonyl}amino)-3-[4′-(isopropylcarbamoyl)-2′-methylbiphenyl-4-yl]propanoyl}amino)phenyl]-4H-1,2,4-triazol-3-yl}-2,2,3,3-tetrafluoropropanoic acid hydrochloride]
IC50 (human factor XIa): 2 nM | IC50 (human plasmin): 4.4 nM | aPTT (human and animal plasma): 0.57 µmol/L

Cc1cc(C(=O)N2CCC3CNC(=O)C32)ccc1-c1ccc(C[C@H](NC(=O)[C@H]2CC[C@H](CN)CC2)C(=O)Nc2ccc3cn[nH]c3c2)cc1 (stereo partly drawn) [Example 163, trans-4-(Aminomethyl)-N-[(2S)-1-(1H-indazol-6-ylamino)-3-{2′-methyl-4′-[(6-oxohexahydropyrrolo[3,4-b]pyrrol-1(2H)-yl)carbonyl]biphenyl-4-yl}-1-oxopropan-2-yl]cyclohexanecarboxamide hydrochloride]
IC50 (human factor XIa): 10 nM | IC50 (human plasmin): 8.8 nM | aPTT (human and animal plasma): 0.07 µmol/L

Cc1cc(C(=O)N[C@@H](C)C(F)(F)F)ccc1-c1ccc(C[C@H](NC(=O)[C@H]2CC[C@H](CN)CC2)C(=O)Nc2ccc3[nH]c(=O)[nH]c3c2)cc1 [Example 133, 4′-{(2S)-2-({[trans-4-(Aminomethyl)cyclohexyl]carbonyl}amino)-3-oxo-3-[(2-oxo-2,3-dihydro-1H-benzimidazol-5-yl)amino]propyl}-2-methyl-N-[(2S)-1,1,1-trifluoropropan-2-yl]biphenyl-4-carboxamide]
IC50 (human factor XIa): 6.7 nM | IC50 (human plasmin): 1.6 nM | aPTT (human and animal plasma): 0.1 µmol/L

CC(C)NC(=O)c1ccc(-c2ccc(C[C@H](NC(=O)[C@H]3CC[C@H](CN)CC3)C(=O)Nc3cc(F)c4cn[nH]c4c3)cc2)c(Cl)c1 [Example 134, 4′-{(2S)-2-({[trans-4-(Aminomethyl)cyclohexyl]carbonyl}amino)-3-[(4-fluoro-1H-indazol-6-yl)amino]-3-oxopropyl}-2-chloro-N-isopropylbiphenyl-4-carboxamide hydrochloride]
IC50 (human factor XIa): 8.9 nM | IC50 (human plasmin): 0.64 nM | aPTT (human and animal plasma): 0.44 µmol/L

Cc1cc(C(=O)NC2CC2)ccc1-c1ccc(C[C@H](NC(=O)[C@H]2CC[C@H](CN)CC2)C(=O)Nc2ccc3cn[nH]c3c2)cc1 [Example 167, 4′-[(2S)-2-({[trans-4-(Aminomethyl)cyclohexyl]carbonyl}amino)-3-(1H-indazol-6-ylamino)-3-oxopropyl]-N-cyclopropyl-2-methylbiphenyl-4-carboxamide hydrochloride]
IC50 (human factor XIa): 6 nM | IC50 (human plasmin): 1.9 nM | aPTT (human and animal plasma): 0.12 µmol/L
